Patent US20230303569A1, “HETEROCYCLIC COMPOUNDS AS THERAPEUTIC AGENTS” (Arisan Therapeutics Inc., priority 2021, published 2023)
Read-outs that look alike come from different tables or passages of the source.

Experiments:
Type in all cases: cell-based
human Nav1.6 = target: T1, human Nav1.6 (Homo sapiens, UniProt Q9UQD0); assay: Two pulse assay protocol, Nav1.6; conditions: 5 uM, peak current
T1 construct: host or cells: HEK293
Method: (§1) In vitro Na+ Current Inhibition Assays were performed by Eurofins Discovery (St Charles, MO). All compound functional activity determinations were determined through electrophysiological analyses of Na+ currents in HEK293 cells expressing a stably transfected Na+ channel (human Nav1.1, 1.2, 1.3, 1.5, 1.6, 1.7, or 1.8). After harvesting with Accutase cells are maintained in serum free medium at room temperature prior to electrophysiological recording utilizing the QPatch HT automated whole-cell patch-clamp platform (Sophion Bioscience, Woburn MA). Stock solution aliquots of the test compound are prepared in DMSO at 300× the final assay concentrations, and stored at −20° C. until the day of assay. On the day of the assay, an aliquot of the stock solution is thawed and diluted into external solution (137 mM NaCl, 4 mM KCl, 1 mM MgCl2, 1.8 mM CaCl2, 10 mM HEPES, 10 mM Glucose (pH 7.3, titrated with 10M NaOH) to make final test concentrations. A final concentration of 0.33% DMSO is maintained for each concentration of the assay compounds. Internal solution for recordings of Na+ consist consists of 100 mM CsF, 45 mM CsCl, 5 mM NaCl, 10 mM HEPES, 5 mM EGTA (pH 7.3, titrated with 1M CsOH).
(§2) Two pulse assay protocol for human Nav1.1, 1.2, 1.3, 1.5, 1.6, 1.7, and 1.8 channels. Mammalian cultured cells expressing the indicated human Nav1.1, 1.2, 1.3, 1.5, 1.6, 1.7 or 1.8 channels were assayed using the The QPatch HT (Sophion Bioscience, Woburn MA) automated system with an intracellular solution (mM) of 100 CsF, 45 CsCl, 5 NaCl, 10 HEPES, 5 EGTA (pH 7.3, titrated with 1M CsOH) and extracellular solution (mM) of 137 NaCl, 4 KCl, 1 MgCl2, 1.8 CaCl2, 10 HEPES, 10 Glucose (pH 7.3, titrated with 10M NaOH). Onset and steady state block of the sodium channel was measured using a pulse pattern, repeated every 20 seconds (s) from a holding potential of −120 mV for 100 ms, and then pulsed to 0 mV for 500 ms to inactivate the Na channels and facilitate inactivated state-dependent binding of the test compounds. The cell membranes were then stepped back to −120 mV for 10 ms to recover from inactivation into resting or closed state (channels with test compound bound to them will not recover from inactivation and will not open) before stepping to 0 mV for 50 ms (pulse 2) to measure Na channels that are available to open. Peak current was measured during the step to 0 mV at pulse 1 and 2 to measure tonic and state-dependent inhibition. Compound activities were assessed by dividing post current amplitude (at the end of each five (5) minute compound application) by the vehicle control amplitude and the mean calculated for each compound concentration. Tetracaine was used as a positive control and was tested concurrently with the test compounds. Current amplitudes in excess of 200 pA at the control stage were analyzed. The amplitude of the current was calculated by measuring the difference between the peak inward current on stepping to 0 mV (i.e. peak of the current) and remaining current at the end of the step. The current was assessed in vehicle control conditions and then at the end of each five (5) minute compound application.

[1] = target: T2, human Nav1.5 (late current) (Homo sapiens, UniProt Q14524); assay: Nav1.5 Late Current Assay (QPatch HT whole-cell patch clamp, 30 nM ATX-II); conditions: HEK293 cells stably expressing human Nav1.5, pH 7.3, late current with 30 nM ATX-II, read-out: percent inhibition hNav1.5 Late (5 uM)
T2 construct: host or cells: HEK293
Method: as §1
Onset and steady state induction of late Nav1.5 current was measured using a pulse pattern, repeated every 5 sec, consisting of a hyperpolarizing pulse to −120 mV for a 200 ms duration, depolarization to −15 mV amplitude for a 40 ms duration, followed by step to 40 mV for 200 ms and finally a 100 ms ramp (1.2 V/s) to a holding potential of −80 mV. Each concentration of compound was applied for 5 minutes. The assay was performed at room temperature. After establishing vehicle control condition, all further addition of external solutions contain 30 nM ATX-II to activate late currents. Each concentration of compound was also co-applied with 30 nM ATXII to estimate the Nav1.5 late current inhibition. […]. ATXII was used as the agonist positive control and was tested concurrently with the test compound. Ranolazine was used as the positive control and was tested concurrently with the test compound.
Nav1.5 late current was measured as the total charge flowing through the Nav1.5 channels (area under the curve) 5 ms after the Nav1.5 peak current till the end of the test pulse and as charge at their maxima during the ramp. Individual cell results were normalized to their respective vehicle control and the results were averaged. The sodium current was assessed in 30 nM ATXII as vehicle control conditions and then at the end of each five (5) minute compound application in the presence of 30 nM ATXII. Individual cell result was normalized to 30 nM ATXII vehicle control amplitude and the mean±SEM calculated for each compound concentration.

human Nav1.1 = target: T3, human Nav1.1 (Homo sapiens, UniProt P35498); assay: Two pulse assay protocol, Nav1.1; conditions: peak current
T3 construct: host or cells: HEK293
Method: (§3) In vitro Na+ Current Inhibition Assays were performed by Eurofins Discovery (St Charles, MO). All compound functional activity determinations were determined through electrophysiological analyses of Na+ currents in HEK293 cells expressing a stably transfected Na+ channel (human Nav1.1, 1.2, 1.3, 1.5, 1.6, 1.7, or 1.8). After harvesting with Accutase cells are maintained in serum free medium at room temperature prior to electrophysiological recording utilizing the QPatch HT automated whole-cell patch-clamp platform (Sophion Bioscience, Woburn MA). […]
(§4) Two pulse assay protocol for human Nav1.1, 1.2, 1.3, 1.5, 1.6, 1.7, and 1.8 channels. […] Onset and steady state block of the sodium channel was measured using a pulse pattern, repeated every 20 seconds (s) from a holding potential of −120 mV for 100 ms, and then pulsed to 0 mV for 500 ms to inactivate the Na channels and facilitate inactivated state-dependent binding of the test compounds. […] Peak current was measured during the step to 0 mV at pulse 1 and 2 to measure tonic and state-dependent inhibition. Compound activities were assessed by dividing post current amplitude (at the end of each five (5) minute compound application) by the vehicle control amplitude and the mean calculated for each compound concentration. […] Current amplitudes in excess of 200 pA at the control stage were analyzed. […]

[2] = target: T4, human Nav1.5 (peak current) (Homo sapiens, UniProt Q14524); assay: Nav1.5 Peak Current Assay (QPatch HT whole-cell patch clamp); conditions: HEK293 cells stably expressing human Nav1.5, pH 7.3, peak current at step to -15 mV, read-out: percent inhibition hNav1.5 Peak (5 uM)
T4 construct: host or cells: HEK293
Method: as §1
Onset and steady state block of peak Nav1.5 current was measured using a pulse pattern, repeated every 5 sec, consisting of a hyperpolarizing pulse to −120 mV for a 200 ms duration, depolarization to -15 mV amplitude for a 40 ms duration, followed by step to 40 mV for 200 ms and finally a 100 ms ramp (1.2 V/s) to a holding potential of −80 mV. Peak current was measured during the step to −15 mV.
Each concentration of compound was applied for 5 minutes. The assay was performed at room temperature and Tetracaine was used concurrently as a positive control. Only current amplitudes in excess of 200 pA at the control stage were analyzed. The amplitude of the sodium current was calculated by measuring the difference between the peak inward current on stepping to −15 mV (i.e. peak of the current) and the leak current. The sodium current was assessed in vehicle control conditions and then at the end of each five (5) minute compound application. Individual cell result was normalized to the vehicle control amplitude and the mean±SEM calculated for each compound concentration.

human Nav1.3 = target: T5, human Nav1.3 (Homo sapiens, UniProt Q9NY46); assay: Two pulse assay protocol, Nav1.3; conditions: peak current
T5 construct: host or cells: HEK293
Method: as §3, §4

human Nav1.2 = target: T6, human Nav1.2 (Homo sapiens, UniProt Q99250); assay: Two pulse assay protocol, Nav1.2; conditions: peak current
T6 construct: host or cells: HEK293
Method: as §1, §2

human Nav1.7 = target: T7, human Nav1.7 (Homo sapiens, UniProt Q15858); assay: Two pulse assay protocol, Nav1.7; conditions: peak current
T7 construct: host or cells: HEK293
Method: as §1, §2

human Nav1.8 = target: T8, human Nav1.8 (Homo sapiens, UniProt Q9Y5Y9); assay: Two pulse assay protocol, Nav1.8; conditions: peak current
T8 construct: host or cells: HEK293
Method: as §1, §2

[3] = target: T9, human Nav1.5 (pulse 1, tonic inhibition) (Homo sapiens, UniProt Q14524); assay: Two pulse assay protocol, Nav1.5; conditions: HEK293 cells stably expressing human Nav1.5, pH 7.3, peak current, pulse 1 (tonic), read-out: percent inhibition hNav1.5, Pulse 1 (5 uM)
T9 construct: host or cells: HEK293
Method: as §1, §2

[4] = target: T10, human Nav1.5 (pulse 2, state-dependent inhibition) (Homo sapiens, UniProt Q14524); assay: Two pulse assay protocol, Nav1.5; conditions: HEK293 cells stably expressing human Nav1.5, pH 7.3, peak current, pulse 2 (state-dependent), read-out: percent inhibition hNav1.5, Pulse 2 (5 uM)
T10 construct: host or cells: HEK293
Method: as §1, §2

[5] = pulse 1 (tonic), read-out: percent inhibition hNav1.6, Pulse 1 (5 uM)
[6] = pulse 2 (state-dependent), read-out: percent inhibition hNav1.6, Pulse 2 (5 uM)
[7] = pulse 1 (tonic), read-out: percent inhibition hNav1.2, Pulse 1 (5 uM)
[8] = pulse 2 (state-dependent), read-out: percent inhibition hNav1.2, Pulse 2 (5 uM)
[9] = pulse 1 (tonic), read-out: percent inhibition hNav1.7, Pulse 1 (5 uM)
[10] = pulse 2 (state-dependent), read-out: percent inhibition hNav1.7, Pulse 2 (5 uM)
[11] = pulse 1 (tonic), read-out: percent inhibition hNav1.8, Pulse 1 (5 uM)
[12] = pulse 2 (state-dependent), read-out: percent inhibition hNav1.8, Pulse 2 (5 uM)

T10 sequence (Q14524 whole entry): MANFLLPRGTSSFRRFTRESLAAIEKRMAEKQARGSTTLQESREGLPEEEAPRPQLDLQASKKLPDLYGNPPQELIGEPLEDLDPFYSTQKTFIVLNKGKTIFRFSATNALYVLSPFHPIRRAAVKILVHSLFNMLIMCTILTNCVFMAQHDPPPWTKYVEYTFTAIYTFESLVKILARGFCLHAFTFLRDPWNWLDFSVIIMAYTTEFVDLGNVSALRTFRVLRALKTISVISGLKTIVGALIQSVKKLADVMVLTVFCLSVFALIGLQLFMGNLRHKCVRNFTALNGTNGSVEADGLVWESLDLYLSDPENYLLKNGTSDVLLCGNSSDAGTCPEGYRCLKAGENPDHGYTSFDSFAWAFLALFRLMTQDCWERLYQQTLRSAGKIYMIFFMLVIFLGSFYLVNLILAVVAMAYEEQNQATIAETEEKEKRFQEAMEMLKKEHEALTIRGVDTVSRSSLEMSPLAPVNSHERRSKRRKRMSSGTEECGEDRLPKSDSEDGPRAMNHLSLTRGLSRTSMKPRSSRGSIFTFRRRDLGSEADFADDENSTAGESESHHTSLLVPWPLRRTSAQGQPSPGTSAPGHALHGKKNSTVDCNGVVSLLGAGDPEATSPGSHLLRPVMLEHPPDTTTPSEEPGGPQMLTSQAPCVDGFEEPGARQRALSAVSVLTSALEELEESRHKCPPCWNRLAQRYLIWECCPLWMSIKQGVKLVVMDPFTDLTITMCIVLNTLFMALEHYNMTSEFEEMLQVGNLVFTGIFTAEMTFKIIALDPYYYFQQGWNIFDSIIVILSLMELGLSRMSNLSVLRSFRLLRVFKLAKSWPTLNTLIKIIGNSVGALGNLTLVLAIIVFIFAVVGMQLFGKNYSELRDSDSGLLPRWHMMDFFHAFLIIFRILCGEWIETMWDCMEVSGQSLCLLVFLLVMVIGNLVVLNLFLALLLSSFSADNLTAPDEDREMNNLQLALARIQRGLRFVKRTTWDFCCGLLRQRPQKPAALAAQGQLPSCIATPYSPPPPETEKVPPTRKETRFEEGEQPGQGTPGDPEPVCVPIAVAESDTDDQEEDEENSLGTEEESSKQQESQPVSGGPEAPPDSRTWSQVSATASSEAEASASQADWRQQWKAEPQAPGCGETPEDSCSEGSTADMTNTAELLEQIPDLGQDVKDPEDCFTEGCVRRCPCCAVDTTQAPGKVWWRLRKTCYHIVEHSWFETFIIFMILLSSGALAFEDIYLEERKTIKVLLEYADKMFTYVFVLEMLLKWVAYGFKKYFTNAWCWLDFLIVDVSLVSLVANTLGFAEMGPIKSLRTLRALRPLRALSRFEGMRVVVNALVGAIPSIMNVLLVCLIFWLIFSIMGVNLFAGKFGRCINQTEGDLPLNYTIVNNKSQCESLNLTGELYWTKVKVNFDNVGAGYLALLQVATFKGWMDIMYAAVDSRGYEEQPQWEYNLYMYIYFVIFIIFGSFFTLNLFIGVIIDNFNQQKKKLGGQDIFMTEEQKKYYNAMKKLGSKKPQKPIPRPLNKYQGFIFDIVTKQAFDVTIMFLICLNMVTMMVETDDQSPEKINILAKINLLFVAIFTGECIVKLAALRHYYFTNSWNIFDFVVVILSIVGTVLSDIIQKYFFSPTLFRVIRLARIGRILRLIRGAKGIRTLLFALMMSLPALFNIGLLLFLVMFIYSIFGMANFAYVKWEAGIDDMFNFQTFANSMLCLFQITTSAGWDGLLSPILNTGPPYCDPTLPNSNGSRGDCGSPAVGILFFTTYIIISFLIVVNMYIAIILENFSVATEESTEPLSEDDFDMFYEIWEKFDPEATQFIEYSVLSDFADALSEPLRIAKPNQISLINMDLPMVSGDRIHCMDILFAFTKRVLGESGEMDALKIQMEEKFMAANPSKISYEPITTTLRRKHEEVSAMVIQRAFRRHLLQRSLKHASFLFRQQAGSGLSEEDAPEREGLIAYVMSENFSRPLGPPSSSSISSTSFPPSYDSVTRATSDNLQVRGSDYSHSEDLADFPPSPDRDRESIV
T9 sequence (Q14524 whole entry): as above

Row | SMILES | inhibition at 5 µM (human Nav1.6; [5]) | inhibition at 5 µM (human Nav1.6; [6]) | inhibition at 5 min, 5 uM [1] | inhibition at 5 µM (human Nav1.1; pulse 1 (tonic), read-out: percent inhibition hNav1.1, Pulse 1 (5 uM)) | inhibition at 5 µM (human Nav1.1; pulse 2 (state-dependent), read-out: percent inhibition hNav1.1, Pulse 2 (5 uM)) | inhibition at 5 min, 5 µM [2] | inhibition at 5 µM (human Nav1.3; pulse 1 (tonic), read-out: percent inhibition hNav1.3, Pulse 1 (5 uM)) | inhibition at 5 µM (human Nav1.3; pulse 2 (state-dependent), read-out: percent inhibition hNav1.3, Pulse 2 (5 uM)) | inhibition at 5 µM (human Nav1.2; [7]) | inhibition at 5 µM (human Nav1.2; [8]) | inhibition at 5 µM (human Nav1.7; [9]) | inhibition at 5 µM (human Nav1.7; [10]) | inhibition at 5 µM (human Nav1.8; [11]) | inhibition at 5 µM (human Nav1.8; [12]) | inhibition at 5 min, 5 µM [3] | inhibition at 5 min, 5 µM [4]
1 | CC(C)Oc1ccc(-c2cnc3ccc(-c4ccc(OC(C)C)nc4)cn23)cc1 [Example C12, 2-(propan-2-yloxy)-5-{3-[4-(propan-2-yloxy)phenyl]imidazo[1,2-a]pyridin-6-yl}pyridine] | < 50% | > 90% | > 90% | < 50% | > 90% | 50 to 90% | < 50% | > 90% | < 50% | > 90% | < 50% | > 90% |  |  |  | 
2 | CC(C)Oc1ccc(-c2ccc3ncc(-c4ccc(OC(C)(C)C)cc4)n3c2)cc1 [Example C32, 3-[4-(tert-butoxy)phenyl]-6-[4-(propan-2-yloxy)phenyl]imidazo[1,2-a]pyridine] | < 50% | > 90% | > 90% |  |  | 50 to 90% |  |  |  |  |  |  |  |  |  | 
3 | CC(C)Oc1ccc(-c2ccc3ncc(-c4ccc(OC(C)C)nc4)n3c2)cc1 [Example C37, 2-(propan-2-yloxy)-5-{6-[4-(propan-2-yloxy)phenyl]imidazo[1,2-a]pyridin-3-yl}pyridine] | < 50% | > 90% | > 90% |  |  | < 50% |  |  |  |  | < 50% | > 90% | < 50% | 50 to 90% |  | 
4 | Cc1cc2ncc(-c3ccc(OC(C)(C)C)cc3)n2cc1-c1ccc(OC(C)C)cc1 [Example C55, 3-(4-(tert-butoxy)phenyl)-6-(4-isopropoxyphenyl)-7-methylimidazo[1,2-a]pyridine] | < 50% | > 90% | 50 to 90% |  |  | < 50% |  |  |  |  | < 50% | 50 to 90% | < 50% | < 50% |  | 
5 | CS(=O)(=O)NC(=O)c1cc2ncc(-c3ccc(OC(F)(F)F)cc3)n2cc1-c1ccccc1 [Example C68, N-(methylsulfonyl)-6-phenyl-3-(4-(trifluoromethoxy)phenyl)imidazo[1,2-a]pyridine-7-carboxamide] |  |  |  |  |  |  |  |  |  |  | < 50% | < 50% | < 50% | < 50% | < 50% | < 50%
6 | Cc1cc2ncc(-c3ccc(OC(C)C)nc3)n2cc1-c1ccc(OC(C)C)cc1 [Example C70, 6-(4-isopropoxyphenyl)-3-(6-isopropoxypyridin-3-yl)-7-methylimidazo[1,2-a]pyridine] | < 50% | < 50% | 50 to 90% |  |  | < 50% |  |  |  |  |  |  |  |  |  | 
7 | CC(C)Oc1ccc(-c2ccc3ncc(-c4ccc(Oc5ccccc5)cc4)n3c2)cc1 [Example C72, 6-(4-isopropoxyphenyl)-3-(4-phenoxyphenyl)imidazo[1,2-a]pyridine] | < 50% | > 90% |  |  |  |  |  |  | < 50% | > 90% | < 50% | > 90% |  |  | < 50% | 50 to 90%
8 | CC(C)Oc1ccc(-c2ccc3ncc(-c4ccc(C(C)C)cc4)n3c2)cc1 [Example C73, 6-(4-isopropoxyphenyl)-3-(4-isopropylphenyl)imidazo[1,2-a]pyridine] | < 50% | > 90% |  |  |  |  |  |  | < 50% | > 90% | < 50% | 50 to 90% |  |  | < 50% | > 90%
